In patent publication US9725490B2, “ERAP1-derived peptide and use thereof” (TOKUSHIMA UNIVERSITY, priority 2011, dated 2017):

Tests used:
Assay type in all cases: cell-based, human
[1] = system: ERα interaction with IGF-1Rβ and Shc; assay: E2-independent non-genomic activation route via IGF-1Rβ, MCF-7; details: 10 μM, 24 hours, cytoplasm fraction
Method: FIG. 15 is a diagram illustrating the effects of the ERAP1-peptide on E2-independent cell functions. […] MCF-7 cells were treated with the ERAP1-peptide in each concentration (1, 3, 5 and 10 μM) or 10 nM tamoxifen as a positive control for 24 hours. […] MCF-7 cells were stimulated with 10 μM ERAP1-peptide treatment only, 10 nM E2 treatment only, or 10 μM ERAP1-peptide treatment and immediately 10 nM E2 for 24 hours, and the cytoplasm fraction was isolated from each of the treated cells. Then, the cytoplasm fraction was immunoprecipitated with anti-ERα antibody. Furthermore, with respect to the obtained sample, Western blotting analysis was performed using the antibodies shown in the figure.
MCF-7 cells were subjected to a treatment of 10 μM ERAP1-peptide alone, stimulation with 10 nM E2 alone, and co-stimulation with the ERAP1 peptide and E2, respectively, and after 24 hours, the cytoplasm fraction was isolated from the cells of each treatment. The cytoplasm fraction was precleaned using normal IgG and rec-Protein G Sepharose 4B (Zymed, San Francisco, Calif., USA) at 4° C. for 3 hours, and centrifuged, and then the supernatant was incubated in the presence of anti-ERα antibody at 4° C. for 6 hours. Then, the supernatant was added with rec-Protein G Sepharose 4B and incubated at 4° C. for 1 hour whereby to precipitate an antigen-antibody complex. […]

[2] = system: PHB2/REA (Ser39) phosphorylation; assay: Ser39 phosphorylation of PHB2/REA, MCF-7; details: 10 μM
Method: FIG. 26-1 is a diagram illustrating the results of evaluations for the phosphorylation in nuclear-translocated Ser39 of PHB2/REA. […] MCF-7 cells were treated with 10 μM ERAP1-peptide. Then, immediately, the cells were stimulated with 10 nM E2 for 24 hours. The cells were fractionated into cytoplasm and nuclear fractions by specific gravity centrifugation. Then, each fraction was immunoprecipitated with anti-PHB2/REA antibody. Then, the cells were lysed. Then, the immunoprecipitated protein and the cell lysate were subjected to immunoblotting analysis with the antibodies shown in the figure. […] Then, immediately, the cells were temporally stimulated with 10 nM E2. Each cell lysate was subjected to immunoblotting analysis with an anti-PHB2/REA antibody and an anti-phosphorylation PHB2/REA (S39) antibody. […] MCF-7 cells were treated with the ERAP1-peptide and λ-phosphatase (400 U) in the presence of 10 nM E2 for 24 hours. After the immobilization, the cells were subjected to immunofluorescent staring. […]
MCF-7 cells were seeded in an 8-well chamber (Laboratory-Tek II Chamber Slide System, Nalgen Nunc International, Naperville, Ill., USA) in 5×10^4 cells/well, and cultured under estrogen-free condition for 24 hours. […] The fluorescence image was obtained under Olympus IX71 microscope (Tokyo, Japan).

[3] = system: protein expression in MCF-7 cells; assay: 2DICAL proteome analysis, MCF-7; details: 10 μM, 10 nM E2 1 hour, versus E2 or E2 + scramble
Method: MCF-7 cells were treated with 10 μM ERAP1-peptide (Peptide) and the ERAP1-scramble peptide (scrPeptide). Then, immediately, the cells were stimulated with 10 nM E2 for 1 hour. Subsequently, the obtained cell lysate solution was digested with trypsin and subjected to 2DICAL. […] MCF-7 cells were treated with 10 μM ERAP1-peptide. Then, immediately, the cells were stimulated with 10 nM E2 for 5, 10 and 15 hours. Then, RNA extraction and then Cy3-cRNA synthesis were performed, and the Cy3-cRNA was subjected to the microarray. The data were statistically analyzed by GeneSpring software, and the ratio to the value at 0 hour was calculated. **P<0.01.
MCF-7 cells were treated with 10 μM ERAP1-peptide and ERAP1-scramble peptide. Then, immediately, the cells were stimulated with 10 nM E2. Then, the cells were fixed with methanol. The cells were dried under reduced pressure, and then treated with trypsin in the presence of 2% sodium deoxycholate and 5 M urea at 37° C. for 20 hours. The protein was extracted with ethyl acetate. […] The data were calculated as a ratio to the value at 0 hour.

CSCC[C@H](NC(=O)[C@H](CCC(N)=O)NC(=O)[C@H](CCCNC(=N)N)NC(=O)[C@H](CCCNC(=N)N)NC(=O)[C@H](CCCNC(=N)N)NC(=O)[C@H](CCCNC(=N)N)NC(=O)[C@H](CCCNC(=N)N)NC(=O)[C@H](CCCNC(=N)N)NC(=O)[C@H](CCCNC(=N)N)NC(=O)[C@H](CCCNC(=N)N)NC(=O)[C@H](CCCNC(=N)N)NC(=O)[C@H](CCCNC(=N)N)NC(=O)[C@@H](N)CCCNC(=N)N)C(=O)N[C@@H](CC(C)C)C(=O)N[C@@H](CO)C(=O)N[C@@H](CC(=O)O)C(=O)N[C@@H](CC(C)C)C(=O)N[C@H](C(=O)N[C@@H](CC(C)C)C(=O)N[C@@H](CCC(N)=O)C(=O)N[C@@H](CC(C)C)C(=O)N[C@@H](CCCNC(=N)N)C(=O)N[C@@H](CCC(N)=O)C(=O)N[C@@H](CCCNC(=N)N)C(=O)O)[C@@H](C)O [ERAP1-peptide]
interaction of IGF-1Rβ and Shc with ERα, absence of E2 [1]: each interaction of IGF-1Rβ and Shc, and ERα was inhibited
E2-dependent Ser phosphorylation of PHB2/REA, successive change ([2]; 10 nM E2): recognized continuously from 1 hour to 24 hours
phosphorylation of Ser39 of nuclear-translocated PHB2/REA ([2]; 10 nM E2 24 hours): recognized for the phosphorylation of Ser39
change of protein expressions [3]: decreased significantly and genome-widely
